Ki data for two compounds are collected here from BindingDB's records for doi:10.1021/jm00151a024 (1986).

A short description of this test: Apparent binding affinity for Alanine racemase from Pseudomonas aeruginosa.

As to `NC(C(Cl)Cl)P(=O)(O)O` (configuration not stated) [(1-Amino-2,2-dichloro-ethyl)-phosphonic acid], the Ki was determined as 2000 µM. The result for `NC(CCl)P(=O)(O)O` (configuration not stated) [(1-Amino-2-chloro-ethyl)-phosphonic acid] reads 820 µM.
